ChEMBL document CHEMBL5226282, “TLR2 Agonistic Small Molecules: Detailed Structure-Activity Relationship, Applications, and Future Prospects” (J Med Chem, 2021)

target: Toll-like receptor 2 (Homo sapiens, UniProt O60603); test: Agonist activity at human TLR2 transfected in HEK293 cells; type: cell-based; conditions: not given
Sequence (O60603 whole entry): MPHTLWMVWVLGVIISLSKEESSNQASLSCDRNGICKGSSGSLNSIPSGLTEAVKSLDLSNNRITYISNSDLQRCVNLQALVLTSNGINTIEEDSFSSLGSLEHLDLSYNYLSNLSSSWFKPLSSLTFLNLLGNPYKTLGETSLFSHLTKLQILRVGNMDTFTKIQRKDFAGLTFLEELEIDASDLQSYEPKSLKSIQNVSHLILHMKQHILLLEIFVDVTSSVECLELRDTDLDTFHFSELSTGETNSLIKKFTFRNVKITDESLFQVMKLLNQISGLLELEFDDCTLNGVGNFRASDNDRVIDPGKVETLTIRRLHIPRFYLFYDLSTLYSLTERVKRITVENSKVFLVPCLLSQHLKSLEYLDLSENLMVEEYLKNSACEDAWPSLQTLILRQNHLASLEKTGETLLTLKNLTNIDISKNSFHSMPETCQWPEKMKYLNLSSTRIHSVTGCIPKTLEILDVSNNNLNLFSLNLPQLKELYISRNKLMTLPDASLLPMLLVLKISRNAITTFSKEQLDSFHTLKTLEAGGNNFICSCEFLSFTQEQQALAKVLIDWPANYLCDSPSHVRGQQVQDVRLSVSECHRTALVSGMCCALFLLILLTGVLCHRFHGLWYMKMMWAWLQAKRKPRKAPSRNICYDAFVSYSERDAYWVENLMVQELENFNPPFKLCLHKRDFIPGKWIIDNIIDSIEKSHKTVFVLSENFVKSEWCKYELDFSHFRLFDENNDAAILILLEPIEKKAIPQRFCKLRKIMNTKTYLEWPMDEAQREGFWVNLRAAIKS

| SMILES | EC50 [nM] |
| --- | --- |
| CCCCCCCCCCCC(=O)OC[C@H](CSC[C@@H](N)C(=O)NC(C)CCC(C)C)OC(=O)CCCCCCCCCCC (stereo partly drawn) | 190 |
| CCCCCCCCCCCC(=O)OC[C@H](CSC[C@@H](N)C(=O)NCCOCCOS(=O)(=O)O)OC(=O)CCCCCCCCCCC | 61 |
| CCCCCCCCCCCC(=O)OC[C@H](CSC[C@@H](N)C(=O)NCCOCCOCCOCCOCCP(=O)(O)O)OC(=O)CCCCCCCCCCC | 38 |
| CCCCCCCCCCCC(=O)OC[C@H](CSC[C@@H](N)C(=O)NC(C)(C)CO)OC(=O)CCCCCCCCCCC | 15500 |
| CCCCCCCCCCCC(=O)OC[C@H](CSC[C@@H](N)C(=O)NCCc1ccc(OCCC(C)C)cc1)OC(=O)CCCCCCCCCCC | 8170 |
| CCCCCCCCCCCC(=O)OC[C@H](CSC[C@@H](N)C(=O)NCCOCCC(F)(F)P(=O)(O)O)OC(=O)CCCCCCCCCCC | 14 |
| CCCCCCCCCCCC(=O)OC[C@H](CSC[C@@H](N)C(=O)NCCc1cccc(O)c1)OC(=O)CCCCCCCCCCC | > 21000 |
| CCCCCCCCCCCC(=O)OC[C@H](CSC[C@@H](N)C(=O)NCCCCCN)OC(=O)CCCCCCCCCCC | 1220 |
| CCCCCCCCCCCC(=O)OC[C@H](CSC[C@@H](N)C(=O)NCCCn1ccnc1)OC(=O)CCCCCCCCCCC | 410 |
| CCCCCCCCCCCC(=O)OC[C@H](CSC[C@@H](N)C(=O)NCCCC(C)(C)CO)OC(=O)CCCCCCCCCCC | 30700 |
| CCCCCCCCCCCC(=O)OC[C@H](CSC[C@@H](N)C(=O)NCCCOCCOCCOCCCN)OC(=O)CCCCCCCCCCC | 498 |
| CCCCCCCCCCCC(=O)OC[C@H](CSC[C@@H](N)C(=O)NCCOCCP(=O)(O)O)OC(=O)CCCCCCCCCCC | 119 |
| CCCCCCCCCCCC(=O)OC[C@H](CSC[C@@H](N)C(=O)NC(C)CCN(CC)CC)OC(=O)CCCCCCCCCCC (stereo partly drawn) | 257 |
| CCCCCCCCCCCC(=O)OC[C@H](CSC[C@@H](N)C(=O)NCCc1ccc(OCCOCCO)cc1)OC(=O)CCCCCCCCCCC | 15300 |
| CCCCCCCCCCCC(=O)OC[C@H](CSC[C@@H](N)C(=O)NCCOCCOCCOCCC(=O)O)OC(=O)CCCCCCCCCCC | 900 |
| CCCCCCCCCCCC(=O)OC[C@H](CSC[C@@H](N)C(=O)N[C@H](C)COCCCP(=O)(O)O)OC(=O)CCCCCCCCCCC | 19.2 |

| SMILES | EC50 [nM] |
| --- | --- |
| CCCCCCCCCCCC(=O)OC[C@H](CSC[C@@H](N)C(=O)NCCCS(=O)(=O)O)OC(=O)CCCCCCCCCCC | 5560 |
| CCCCCCCCCCCC(=O)OC[C@H](CSC[C@@H](N)C(=O)NCCOCCOCCOCCP(=O)(O)O)OC(=O)CCCCCCCCCCC | 270 |
| CCCCCCCCCCCC(=O)OC[C@H](CSC[C@@H](N)C(=O)NCCCCN)OC(=O)CCCCCCCCCCC | 1040 |
| CCCCCCCCCCCC(=O)OC[C@H](CSC[C@@H](N)C(=O)NCCCCCCCCCC(=O)O)OC(=O)CCCCCCCCCCC | 4400 |
| CCCCCCCCCCCC(=O)OC[C@H](CSC[C@@H](N)C(=O)NCCCOCCCCOCCCCN)OC(=O)CCCCCCCCCCC | 810 |
| CCCCCCCCCCCC(=O)OC[C@H](CSC[C@@H](N)C(=O)N[C@@H](CC)COCC(=O)O)OC(=O)CCCCCCCCCCC | 6500 |
| CCCCCCCCCCCC(=O)OC[C@H](CSC[C@@H](N)C(=O)NC(Cc1ccccc1)c1ccccc1)OC(=O)CCCCCCCCCCC (stereo partly drawn) | 68 |
| CCCCCCCCCCCC(=O)OC[C@H](CSC[C@@H](N)C(=O)NCCc1ccc(OCCCP(=O)(O)O)cc1)OC(=O)CCCCCCCCCCC | 410 |
| CCCCCCCCCCCC(=O)OC[C@H](CSC[C@@H](N)C(=O)NCCCOCCOCCOCCCNC(=O)C(N)CS)OC(=O)CCCCCCCCCCC (stereo partly drawn) | 247 |
| CCCCCCCCCCCC(=O)OC[C@H](CSC[C@@H](N)C(=O)NCCc1ccc(Oc2ccccc2)cc1)OC(=O)CCCCCCCCCCC | 4080 |
| CCCCCCCCCCCC(=O)OC[C@H](CSC[C@@H](N)C(=O)N[C@@H](CO)C(=O)NCCOCCOCCOCCC(=O)O)OC(=O)CCCCCCCCCCC | 4940 |
| CCCCCCCCCCCC(=O)OC[C@H](CSC[C@@H](N)C(=O)NCCOCCOCCN)OC(=O)CCCCCCCCCCC | 1290 |
| CCCCCCCCCCCC(=O)OC[C@H](CSC[C@@H](N)C(=O)NCCOCCOCCC(F)(F)P(=O)(O)O)OC(=O)CCCCCCCCCCC | 31 |
| CCCCCCCCCCCC(=O)OC[C@H](CSC[C@@H](N)C(=O)NCCCCCCN)OC(=O)CCCCCCCCCCC | 1220 |
| CCCCCCCCCCCC(=O)OC[C@H](CSC[C@@H](N)C(=O)NC(CC)COC)OC(=O)CCCCCCCCCCC (stereo partly drawn) | 71.8 |

same assay, conditions: hek293

| SMILES | EC50 [nM] |
| --- | --- |
| CCCCCCCCCCCCCCCC(=O)OCC(CSC[C@@H](N)C(=O)N[C@@H](CO)C(=O)N[C@@H](CC(N)=O)C(=O)N[C@@H](CC(C)C)C(=O)N[C@H](C(=O)N[C@H](C(=O)N[C@@H](C)C(=O)N[C@@H](CO)C(=O)N[C@@H](CCC(=O)O)C(=O)N[C@H](C(=O)N[C@@H](CC(C)C)C(=O)O)[C@@H](C)O)[C@@H](C)CC)[C@@H](C)CC)OC(=O)CCCCCCCCCCCCCCC (stereo partly drawn) | 270 |

target: Toll-like receptor 2 (Mus musculus) (UniProt Q9QUN7); test: Agonist activity at mouse TLR2 transfected in HEK293 cells relative to control; type: cell-based; design: concentration or dose not given beside the values; conditions: not given
Sequence (Q9QUN7 whole entry): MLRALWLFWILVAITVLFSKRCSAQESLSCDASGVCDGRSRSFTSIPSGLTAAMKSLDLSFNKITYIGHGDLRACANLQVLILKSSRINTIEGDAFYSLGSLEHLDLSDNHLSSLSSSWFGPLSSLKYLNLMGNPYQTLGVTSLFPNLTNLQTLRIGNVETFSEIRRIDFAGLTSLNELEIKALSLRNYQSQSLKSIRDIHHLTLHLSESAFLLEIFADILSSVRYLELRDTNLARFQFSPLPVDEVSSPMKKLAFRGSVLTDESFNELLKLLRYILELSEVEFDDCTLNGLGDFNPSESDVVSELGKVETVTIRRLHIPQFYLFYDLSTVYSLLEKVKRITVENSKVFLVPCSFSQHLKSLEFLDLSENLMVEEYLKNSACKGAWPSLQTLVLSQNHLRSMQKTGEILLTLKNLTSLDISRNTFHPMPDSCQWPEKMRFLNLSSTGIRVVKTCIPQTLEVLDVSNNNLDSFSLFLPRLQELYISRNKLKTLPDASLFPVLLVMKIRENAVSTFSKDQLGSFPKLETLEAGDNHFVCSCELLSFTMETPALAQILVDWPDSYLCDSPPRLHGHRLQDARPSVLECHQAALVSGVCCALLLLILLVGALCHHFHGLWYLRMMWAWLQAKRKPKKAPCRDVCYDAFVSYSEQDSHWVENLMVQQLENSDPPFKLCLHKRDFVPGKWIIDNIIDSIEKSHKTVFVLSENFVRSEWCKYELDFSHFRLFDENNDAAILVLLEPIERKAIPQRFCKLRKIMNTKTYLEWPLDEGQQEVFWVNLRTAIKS

| SMILES | Activity [%] |
| --- | --- |
| CCCCCCCCCC(=O)N[C@H](CSCC(COC(=O)CCCCCCC)OC(=O)CCCCCCC)C(=O)N[C@@H](CO)C(=O)N[C@@H](CCCCN)C(=O)N[C@@H](CCCCN)C(=O)N[C@@H](CCCCN)C(=O)N[C@@H](CCCCN)C(=O)O (stereo partly drawn) | 11 |
| CCC(=O)OCC(CSC[C@@H](NC(=O)Cc1ccccc1)C(=O)N[C@@H](CO)C(=O)N[C@@H](CCCCN)C(=O)N[C@@H](CCCCN)C(=O)N[C@@H](CCCCN)C(=O)N[C@@H](CCCCN)C(=O)O)OC(=O)CC (stereo partly drawn) | 0 |
| CCCCCC(=O)N[C@H](CSCC(COC(=O)CCCCC)OC(=O)CCCCC)C(=O)N[C@@H](CO)C(=O)N[C@@H](CCCCN)C(=O)N[C@@H](CCCCN)C(=O)N[C@@H](CCCCN)C(=O)N[C@@H](CCCCN)C(=O)O (stereo partly drawn) | 0 |
| CCCCCCCCCC(=O)N[C@H](CSCC(COC(=O)CC)OC(=O)CC)C(=O)N[C@@H](CO)C(=O)N[C@@H](CCCCN)C(=O)N[C@@H](CCCCN)C(=O)N[C@@H](CCCCN)C(=O)N[C@@H](CCCCN)C(=O)O (stereo partly drawn) | 26 |
| CCCCCCCCCC(=O)N[C@H](CSCC(COC(=O)CCCCC)OC(=O)CCCCC)C(=O)N[C@@H](CO)C(=O)N[C@@H](CCCCN)C(=O)N[C@@H](CCCCN)C(=O)N[C@@H](CCCCN)C(=O)N[C@@H](CCCCN)C(=O)O (stereo partly drawn) | < 10 |
| CCCCCC(=O)OCC(CSC[C@@H](NC(=O)Cc1ccccc1)C(=O)N[C@@H](CO)C(=O)N[C@@H](CCCCN)C(=O)N[C@@H](CCCCN)C(=O)N[C@@H](CCCCN)C(=O)N[C@@H](CCCCN)C(=O)O)OC(=O)CCCCC (stereo partly drawn) | 0 |
| CCCCCCCC(=O)OCC(CSC[C@@H](NC(=O)CCCCC)C(=O)N[C@@H](CO)C(=O)N[C@@H](CCCCN)C(=O)N[C@@H](CCCCN)C(=O)N[C@@H](CCCCN)C(=O)N[C@@H](CCCCN)C(=O)O)OC(=O)CCCCCCC (stereo partly drawn) | 11 |
| CCCCCCCC(=O)OCC(CSC[C@@H](NC(=O)Cc1ccccc1)C(=O)N[C@@H](CO)C(=O)N[C@@H](CCCCN)C(=O)N[C@@H](CCCCN)C(=O)N[C@@H](CCCCN)C(=O)N[C@@H](CCCCN)C(=O)O)OC(=O)CCCCCCC (stereo partly drawn) | 11 |
| CCCCCCCCCCCCCCCC(=O)N[C@H](CSCC(COC(=O)CC)OC(=O)CC)C(=O)N[C@@H](CO)C(=O)N[C@@H](CCCCN)C(=O)N[C@@H](CCCCN)C(=O)N[C@@H](CCCCN)C(=O)N[C@@H](CCCCN)C(=O)O (stereo partly drawn) | 26 |
| CCCCCCCCCCCCCCCC(=O)N[C@H](CSCC(COC(=O)CCCCCCC)OC(=O)CCCCCCC)C(=O)N[C@@H](CO)C(=O)N[C@@H](CCCCN)C(=O)N[C@@H](CCCCN)C(=O)N[C@@H](CCCCN)C(=O)N[C@@H](CCCCN)C(=O)O (stereo partly drawn) | 0 |

same assay, conditions: filed as agonist

| SMILES | Activity [%] |
| --- | --- |
| CCCCCCCCCCCCCCCC(=O)OCC(CSC[C@@H](NC(=O)Cc1ccccc1)C(=O)N[C@@H](CO)C(=O)N[C@@H](CCCCN)C(=O)N[C@@H](CCCCN)C(=O)N[C@@H](CCCCN)C(=O)N[C@@H](CCCCN)C(=O)O)OC(=O)CCCCCCCCCCCCCCC (stereo partly drawn) | > 100 |
| CCCCCCCCCCCCCCCC(=O)OCC(CSC[C@@H](NC(=O)CCCCCCCCC)C(=O)N[C@@H](CO)C(=O)N[C@@H](CCCCN)C(=O)N[C@@H](CCCCN)C(=O)N[C@@H](CCCCN)C(=O)N[C@@H](CCCCN)C(=O)O)OC(=O)CCCCCCCCCCCCCCC (stereo partly drawn) | > 100 |
| CCCCCCCCCCCCCCCC(=O)N[C@H](CSCC(COC(=O)CCCCCCCCCCCCCCC)OC(=O)CCCCCCCCCCCCCCC)C(=O)N[C@@H](CO)C(=O)N[C@@H](CCCCN)C(=O)N[C@@H](CCCCN)C(=O)N[C@@H](CCCCN)C(=O)N[C@@H](CCCCN)C(=O)O (stereo partly drawn) | 51 |
| CCCCCCCCCCCCCC(=O)N[C@H](CSCC(COC(=O)CCCCCCC)OC(=O)CCCCCCC)C(=O)N[C@@H](CO)C(=O)N[C@@H](CCCCN)C(=O)N[C@@H](CCCCN)C(=O)N[C@@H](CCCCN)C(=O)N[C@@H](CCCCN)C(=O)O (stereo partly drawn) | 51 |
| CCCCCCCCCCCCCC(=O)N[C@H](CSCC(COC(=O)CC)OC(=O)CC)C(=O)N[C@@H](CO)C(=O)N[C@@H](CCCCN)C(=O)N[C@@H](CCCCN)C(=O)N[C@@H](CCCCN)C(=O)N[C@@H](CCCCN)C(=O)O (stereo partly drawn) | 51 |
| CCCCCCCCCCCCCCCC(=O)OCC(CSC[C@@H](NC(=O)CCCCCCCCCCCCC)C(=O)N[C@@H](CO)C(=O)N[C@@H](CCCCN)C(=O)N[C@@H](CCCCN)C(=O)N[C@@H](CCCCN)C(=O)N[C@@H](CCCCN)C(=O)O)OC(=O)CCCCCCCCCCCCCCC (stereo partly drawn) | > 100 |
| CCCCCCCCCCCCCCCC(=O)OCC(CSC[C@@H](NC(=O)CCCCC)C(=O)N[C@@H](CO)C(=O)N[C@@H](CCCCN)C(=O)N[C@@H](CCCCN)C(=O)N[C@@H](CCCCN)C(=O)N[C@@H](CCCCN)C(=O)O)OC(=O)CCCCCCCCCCCCCCC (stereo partly drawn) | > 100 |

target: Toll-like receptor 1/2 (Homo sapiens, UniProt O60603+Q15399); test: Agonist activity at TLR2/TLR1 in human THP-1 cells; type: cell-based; conditions: not given
Sequence (O60603 whole entry): as the sequence (O60603 whole entry) above
Sequence (Q15399 whole entry): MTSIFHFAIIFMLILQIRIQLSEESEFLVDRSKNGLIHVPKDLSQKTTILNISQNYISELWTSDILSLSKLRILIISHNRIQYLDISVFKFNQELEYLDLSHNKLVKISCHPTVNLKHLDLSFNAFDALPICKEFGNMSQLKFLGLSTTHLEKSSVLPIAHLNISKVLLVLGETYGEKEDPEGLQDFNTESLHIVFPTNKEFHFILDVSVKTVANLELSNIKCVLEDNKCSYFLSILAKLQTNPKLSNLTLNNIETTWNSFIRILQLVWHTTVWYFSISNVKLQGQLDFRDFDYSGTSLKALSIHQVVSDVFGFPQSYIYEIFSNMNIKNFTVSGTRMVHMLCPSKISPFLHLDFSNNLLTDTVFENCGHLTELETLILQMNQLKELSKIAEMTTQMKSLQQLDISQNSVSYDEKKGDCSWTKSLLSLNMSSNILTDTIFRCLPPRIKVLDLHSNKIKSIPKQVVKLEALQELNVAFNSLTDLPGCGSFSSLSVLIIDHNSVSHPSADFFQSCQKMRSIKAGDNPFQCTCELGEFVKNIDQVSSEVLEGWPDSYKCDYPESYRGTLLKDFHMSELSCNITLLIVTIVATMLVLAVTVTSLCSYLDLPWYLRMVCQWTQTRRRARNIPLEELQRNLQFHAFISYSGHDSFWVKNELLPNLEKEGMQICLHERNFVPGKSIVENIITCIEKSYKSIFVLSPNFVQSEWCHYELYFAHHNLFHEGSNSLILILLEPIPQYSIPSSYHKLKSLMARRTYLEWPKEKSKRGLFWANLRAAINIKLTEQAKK

| SMILES | EC50 [nM] |
| --- | --- |
| O=C(N[C@H]1C[C@@H]1c1ccccc1)[C@@H]1CN(C(=O)c2cc(Cl)c(C(=O)N3C[C@@H](C(=O)N[C@H]4C[C@@H]4c4ccccc4)[C@H](C(=O)N[C@H]4C[C@@H]4c4ccccc4)C3)cc2Cl)C[C@H]1C(=O)N[C@H]1C[C@@H]1c1ccccc1 | 360 |
| O=C(N[C@H]1C[C@@H]1c1ccccc1)[C@@H]1CN(C(=O)c2ccc3cc(C(=O)N4C[C@@H](C(=O)N[C@H]5C[C@@H]5c5ccccc5)[C@H](C(=O)N[C@H]5C[C@@H]5c5ccccc5)C4)ccc3c2)C[C@H]1C(=O)N[C@H]1C[C@@H]1c1ccccc1 | 2 |

target: Toll-like receptor 1/2 (Mus musculus); test: Agonist activity at TLR2/TLR1 in mouse Macrophage cell line; conditions: not given

| SMILES | EC50 [nM] |
| --- | --- |
| O=C(N[C@H]1C[C@@H]1c1ccccc1)[C@@H]1CN(C(=O)c2cc(Cl)c(C(=O)N3C[C@@H](C(=O)N[C@H]4C[C@@H]4c4ccccc4)[C@H](C(=O)N[C@H]4C[C@@H]4c4ccccc4)C3)cc2Cl)C[C@H]1C(=O)N[C@H]1C[C@@H]1c1ccccc1 | > 5000 |
| O=C(N[C@H]1C[C@@H]1c1ccccc1)[C@@H]1CN(C(=O)c2ccc3cc(C(=O)N4C[C@@H](C(=O)N[C@H]5C[C@@H]5c5ccccc5)[C@H](C(=O)N[C@H]5C[C@@H]5c5ccccc5)C4)ccc3c2)C[C@H]1C(=O)N[C@H]1C[C@@H]1c1ccccc1 | 380 |
